Laboratory results as given in PubChem BioAssay AID1329 (NMMLSC, 2008).
Activity calls are given as the source filed them. The rule behind the calls is not given here.

Each molecule was assayed against Induced myeloid leukemia cell differentiation protein Mcl-1 (Homo sapiens) (UniProt Q07820) (assay: modulators of Bim peptide binding to Mcl-1, dose response, biochemical, bead-based flow cytometry, multiplexed, human (AID 1329)). Conditions: Bim peptide-Mcl-1 binding, MCF.
Sequence of Induced myeloid leukemia cell differentiation protein Mcl-1 (Homo sapiens) (Q07820 whole entry, looked up): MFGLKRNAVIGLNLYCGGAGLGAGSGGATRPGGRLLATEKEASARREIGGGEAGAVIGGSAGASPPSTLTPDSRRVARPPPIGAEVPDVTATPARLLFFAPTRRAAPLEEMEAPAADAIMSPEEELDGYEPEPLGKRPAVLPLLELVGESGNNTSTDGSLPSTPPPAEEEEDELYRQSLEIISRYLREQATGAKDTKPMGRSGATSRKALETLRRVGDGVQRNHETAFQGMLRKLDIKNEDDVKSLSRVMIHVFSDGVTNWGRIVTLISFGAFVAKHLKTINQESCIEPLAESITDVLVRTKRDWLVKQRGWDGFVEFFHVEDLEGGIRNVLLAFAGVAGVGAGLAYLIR

Percent span, inactive:
CCOc1ccc(NCc2ccccc2OCc2cccc(F)c2)cc1, O=C(Nc1ccccn1)c1cc2ccccc2o1, Cc1ccc(Nc2nc(-c3c(C)nc4ncccn34)cs2)cc1, CCCC1(C(=O)OCC)NC(c2cc(OC)c(OC)c(OC)c2)C2C(=O)N(CC)C(=O)C21 (stereo not given), O=C(COc1ccccc1)Nc1ccc2c(c1)Cc1cc(NC(=O)COc3ccccc3)ccc1-2, O=C(c1cnccn1)N(Cc1cccs1)C1(C(=O)NC2CCCCC2)CCCCC1, Cc1onc(-c2ccccc2Cl)c1C(=O)Nc1nn[nH]n1, O=C(NC1=C(Nc2ccc(F)cc2)C(=O)c2ccccc2C1=O)c1ccc(Cl)cc1, C/C(=C\c1ccco1)C1Nc2cccc3cccc(c23)N1, O=C(O)c1ccccc1NSc1ccccc1[N+](=O)[O-], Cc1cc(N)ccc1N1CCCC1, O=C(CC1NCCNC1=O)Nc1cccc([N+](=O)[O-])c1 (stereo not given), COc1ccc(CCNC(=O)c2cc(-c3ccccn3)nc3c(Cl)cccc23)cc1OC, CCOC(=O)/C(=C\c1ccc(Cl)cc1)c1nc2sc(C)c(C)c2c(=O)[nH]1, CNC(=O)c1sc(-c2ccccn2)nc1C, OC(COc1ccc2ccccc2c1)CN1CCCC1 (stereo not given), Clc1ccc2c(N/N=C/c3ccccc3Br)ccnc2c1, Cc1nc2scc(-c3ccccc3)c2c(=O)n1N=C1C=CC(=O)C=C1, CCC(CC)C(=O)Nc1cccc(SC)c1, CC1C=CCC2C(=O)N(c3ccc(OC(=O)c4cccs4)cc3)C(=O)C12 (stereo not given), Cc1cc(C)cc(NS(=O)(=O)c2ccc3c(c2)c(=O)n(C)c(=O)n3C)c1, Cc1ccc(C)c(Oc2ncnc(N)c2[N+](=O)[O-])c1, C#CCOCCOCCOCCNc1nc(N2CCN(C(=O)[C@H]([C@@H](C)CC)n3cc([C@@H](N)CC(C)C)nn3)CC2)nc(N2CCN(C(=O)[C@H](Cc3cc4ccccc4[nH]3)n3cc([C@@H](N)Cc4ccc(O)cc4)nn3)CC2)n1, O=C(O)CC/C(=C\c1cc([N+](=O)[O-])ccc1Cl)c1nc2ccccc2s1, COc1ccccc1N(C)S(=O)(=O)c1ccc(C(=O)OCC(N)=O)cc1, Cn1c(N)c(C(=O)COC(=O)c2cc(-c3ccco3)nc3ccccc23)c(=O)n(Cc2ccccc2)c1=O, CCOC(=O)c1c2c3c(cccc3[nH]c1=O)C(=O)c1ccccc1-2, CCOC(=O)c1nn(-c2ccccc2)c(C#N)c1N, Cc1ccc(NC(=O)CC2S/C(=N/N=C/c3c[nH]c4ccccc34)NC2=O)cc1 (stereo not given), Cc1ccc(/C=C/C(=O)c2ccccc(=O)c2O)cc1C, COc1cc(/C=C2/NC(=O)N(Cc3ccccc3F)C2=O)cc(OC)c1O, CNC(=O)c1c(N)sc2c1CCCCC2, COc1ccc(C(=O)Nc2ccc(NC(=O)c3cccs3)cc2)cc1Cl, O=C1C(Cl)=C(Nc2ccccc2O)C(=O)N1c1ccccc1, CNC(=S)N(Cc1cccs1)Cc1cc2ccc(OC)cc2[nH]c1=O, COc1cccc(/C=N/Nc2nn3cnnc3c3ccccc23)c1, Cc1ccc(Nc2nc(C)cs2)cc1, O=[N+]([O-])c1c(NCCCO)cc(Sc2nc3ccccc3s2)c2nonc12, CCc1nn2cc(C(=O)c3cc(C)ccc3O)cnc2c1-c1ccc(F)cc1, COc1cc(C2Nc3cccc4cccc(c34)N2)ccc1OC(C)=O, OCCN1CCN(CCCc2c3c(cc4c2CCC4)CCC3)CC1, CCSc1ncnc2sc(C)c(C)c12, Cc1cc(C)c2nc3nc(C)c(C)cc3c(N)c2c1, N/C(=N\N=C/c1ccc(Br)cc1)N/N=C\c1ccc(Br)cc1, Cn1c(=O)c2c(nc(NCCO)n2CCc2ccccc2)n(C)c1=O, NC(=O)c1c(NC(=O)C2CCCO2)sc2c1CCCC2 (stereo not given), O=C(O)c1cccc(NC2=C(Cl)C(=O)c3ccccc3C2=O)c1, NC(=O)c1c(NC(=O)C2CCCO2)sc2c1CCCCC2 (stereo not given), CCOc1ccccc1NC(=O)CSc1nnc2ccc(-c3cccnc3)nn12, Cc1ccc(N=c2ssnc2Cl)cc1, CCOc1cc(/C=N/NC(N)=O)ccc1OCC(=O)Nc1ccc(C)c(C)c1, COc1ccccc1-n1c(-c2ccc(Cl)cc2)c[nH]c1=S, O=C(NCc1ccccn1)c1ccc2nc(-c3ccco3)c(-c3ccco3)nc2c1, CCOC(=O)c1nc(Nc2ccc(N3CCC(C)CC3)cc2)c2ccccc2n1, O=C(NCCN1CCOCC1)c1cc(Cl)ccc1[N+](=O)[O-], CCn1c(SCC(=O)Nc2ccccc2-c2ccccc2)nnc1-c1ccoc1C, O=C(c1cccc(Br)c1)N1CCN(c2cnn(-c3ccccc3)c(=O)c2Cl)CC1, O=C(C1=NN[C@@H]2C(=O)N(c3cccc(F)c3)C(=O)[C@H]12)c1ccc2ccccc2n1, COc1ccc(-n2c(SCC(=O)Nc3ccc(C(=O)O)cc3)nnc2-c2cccs2)cc1, COc1ccc(NS(=O)(=O)c2cc(NC(=O)c3ccc(C)o3)ccc2N2CCCCC2)cc1, COc1ccc(Cc2c(O)nc(SC)n(C(C)=O)c2=O)cc1, Cc1nn(-c2ccc(Cl)c(Cl)c2)c(C)c1C(=O)O, CCN1C(=O)/C(=C\C=C2/C=CC=CN2CC)SC1=S, COc1ccc(CN(CC(=O)NC2CCCC2)C(=O)CCC(=O)Nc2cc(C)on2)cc1, C=CCn1c(C)c(C(C)=O)c(N2CCOCC2)nc1=S, CNC(CC(=O)c1ccc([N+](=O)[O-])cc1)C(Cl)(Cl)Cl (stereo not given), COc1ccc(CN(C)CC(=O)NC(C)c2ccccc2)c(OC)c1 (stereo not given), O=C(Nc1cccc(Cl)c1)Nc1ccnc(-c2cccnc2)n1, COc1ccc(NC(=O)c2ccco2)cc1NC(=O)c1ccco1, COc1ccc(C(=S)N2CCCCCC2)cc1, CCN1/C(=C/c2ccc3cc(C)cc(C)c3[n+]2CC)Sc2cc(C)ccc21, CCn1cc(C=C2C(=O)c3ccccc3C2=O)c2ccccc21, c1ccc(Nc2nc(-c3ccncc3)cs2)cc1, CC(=O)NC1=C(NC2CCS(=O)(=O)C2)C(=O)c2ccccc2C1=O (stereo not given), CCSc1nnc(NC(=O)c2c(-c3ccccc3Cl)noc2C)s1, O=C(Cc1ccccc1)N/N=C/c1cccn1-c1ccc([N+](=O)[O-])cc1, COc1ccc(OCCNC(=O)c2ccccc2OCC(=O)N2CCCCC2)cc1, O=C(COc1ccccc1Br)NCc1ccccn1, CN(C)c1ccc(/C=C2/SC(=O)N(CCN=C3NS(=O)(=O)c4ccccc43)C2=O)cc1, CCCCOC(=O)c1nc(Cl)c(Cl)c(N)c1Cl, O=C(Nc1ccc2nc(-c3ccco3)c(-c3ccco3)nc2c1)N1CCCCCC1, CCN(CC)c1ccc(NC(=O)c2cccc(C)c2)cc1S(=O)(=O)Nc1ccccc1OC, O=C(NC1=C(Nc2ccc(Cl)cc2)C(=O)c2ccccc2C1=O)c1ccccc1, CCOC(=O)CSC1=NC(=O)/C(=C/c2ccc(OC)cc2)S1, COC(=O)Cc1cc(=O)[nH]c(Nc2nc3ccccc3o2)n1, Cc1nc(=S)c2ccccc2[nH]1, O=C(Nc1nccs1)c1ccc(COc2ccc(F)cc2)o1, O=C(O)c1ccc(NS(=O)(=O)c2ccc3c(c2)C(=O)c2ccccc2C3=O)cc1, O=C(CCl)Nc1cccc2ncccc12, CCCn1c(C)cc(-c2csc(N)n2)c1C, CCOc1ccc(N2C(=O)C(Cl)=C(Nc3ccccc3O)C2=O)cc1, CCn1c(C)nc2cc(C(=O)N/N=C/c3ccc(O)c(O)c3O)ccc21, CC(C)CN1C(=O)/C(=C/c2ccco2)NC1=S, COc1ccc(-c2noc(COc3ccc4c(c3)OCO4)n2)cc1OC, CC(=O)N1CCN(C(=O)c2ccc(-n3c(C)ccc3C)cc2)CC1, O=C(Nc1ccccc1)Nc1ccc2ncoc2c1, Cc1cccc(-n2c(-c3ccncc3)n[nH]c2=S)c1, Cc1ccc(C(NC(=O)C(C)C)c2cc([N+](=O)[O-])c3cccnc3c2O)cc1 (stereo not given), CCCCOc1ccc(Cc2c(Cl)nc(SC)nc2N2CCOCC2)cc1, Cn1c(=O)c2cc(S(=O)(=O)Nc3cc(C(=O)O)cc(C(=O)O)c3)ccc2n(C)c1=O, COc1ccc(NC(=O)c2cccs2)cc1, CNc1ccc(Br)cc(C(=O)/C=C/c2ccc(OC)cc2)c1=O, Cc1csc(Nc2ccccc2C(F)(F)F)n1, CC(=O)Nc1ccc2nc(CN3CCN(CC(C)C)C(CCO)C3)ccc2c1 (stereo not given), CCC(=O)NC(c1ccc(C)cc1)c1cc([N+](=O)[O-])c2cccnc2c1O (stereo not given)
